Experimental data: patent US7776863B2, “Methods of treating HIV infection” (priority 2004, dated 2010)

System: HIV-1 LAI
Assay: microbe, parasite or virus in culture
Details: for Combination Indices at % HIV Inhibition (Confidence Interval) 50% / Combination Indices at % HIV Inhibition (Confidence Interval) 75% / Combination Indices at % HIV Inhibition (Confidence Interval) 90%: 95% confidence interval in parentheses; for Overall Result (combined anti-HIV effect): all ratios, MT-2 cells, HIV-1 LAI
Method: Virus and cell lines. The T-cell lines, MT-2 and PM-1 were obtained through the AIDS Research and Reference Reagent Program, NIAID, and were contributed by Dr. D. Richman and Dr. R. Gallo, respectively. Both cell lines were cultured in RPMI 1640 medium supplemented with 10% fetal bovine serum, 2 mM L-glutamine and sub-cultured twice a week. The LAI strain of HIV-1 was obtained from the Fred Hutchinson Cancer Research Center, and the Bal strain was from NIH. Both virus stocks were amplified and titered in MT-2 cells (LAI) and PM-1 cells (Bal) using a virus infectivity assay.
Drug Susceptibility and Cytotoxicity Assays. For drug susceptibility assays, MT-2 cells were infected with HIV-1 LAI (or PM-1 cells with HIV-1 Bal) at an MOI of 0.005, and seeded into 96-well microtiter plates (0.1×10^6 cells/ml) containing serial dilutions of test compounds. […] Each drug ratio consisted of an array of 3-fold serial dilutions, and was performed in quadruplicate. The plates were incubated at 37° C./5% CO2. The MT-2 cells infected with HIV-1 LAI were incubated for 5 days. On day-five post-infection, 20 μl from each well was harvested and quantitated by a reverse transcriptase (RT) assay, or in samples involving non-nucleoside RT inhibitors, an MTS assay. The PM-1 cells infected with HIV-1 Bal and used for studying the combinations with CCR5 inhibitors were incubated for six days. On day-six post-infection, 20 μl from each well was harvested, 20- and 50-fold diluted and quantitated by p24 assay. Cytotoxicity assays were performed using uninfected cells, exposed to the same drug combinations, and incubated for six days. Cell viability was determined by an MTS assay. The CC50 values were calculated by using the exponential form of the median effect equation as mentioned below for calculation of EC50.
Analysis of Drug Combination Effects. For determination of CI values, drugs were diluted in a fixed ratio and multiple ratios were analyzed. The drug serial dilutions spanned a range of concentrations near the EC50 value of each compound, so that equivalent antiviral activities could be compared. Concentration-response curves were estimated for each individual drug and every combination using the median-effect equation. The equation was fit using a nonlinear regression routine (Proc Nlin) in PC SAS version 8.01 (SAS Institute Inc., SAS Version 8.01, Cary, N.C.: SAS Institute Inc., 1990).
In this equation, Fa stands for “fraction affected,” and represents the fraction of the viral load that has been inactivated. […] ED50 is drug concentration that is expected to reduce the amount of virus by 50%, and m is a parameter that reflects the slope of the concentration-response curve.
To assess antiviral effects of different drug combination treatments, combination indices (CIs) were calculated according to Chou and Rideout. The combination index was computed as CI=[D]1/[Dm]1+[D]2/[Dm]2
In this equation [Dm]1 and [Dm]2 are the concentrations of drugs that would individually produce a specific level of effect, while [D]1 and [D]2 are the concentrations of drugs in combination that would produce the same level of effect.
Theoretically, additivity is implied if the CI is equal to one, synergy if the CI is less than one, and antagonism if the CI is greater than one. […] At best, we can construct a range that contains the likely values for the CI, given the noise in the data. In this report, these ranges are reported in parentheses next to each point estimate of the CI. […] If the range fell entirely above 1.0, we would infer antagonistic behavior. If the range were to include 1.0, we would infer additivity.
In carrying out the combination experiments below, the EC50 for Compound 1 and each comparator compound was determined during the course of each study, and used in the subsequent data analysis.

[1] = Compound 1 + named drug, EC50 ratio 1:1 (Compound 1:comparator)
[2] = Compound 1 + named drug, EC50 ratio 1:2.5 (Compound 1:comparator)
[3] = Compound 1 + named drug, EC50 ratio 2.5:1 (Compound 1:comparator)
[4] = Human immunodeficiency virus 1, MT2, 120 h

Compound	Combined effect at 90% inhibition level (Compound 1 + named drug)	Combined effect at the 50 and 75% inhibition levels (Compound 1 + named drug)	Combination Indices at % HIV Inhibition (Confidence Interval) 50% [1]	Combination Indices at % HIV Inhibition (Confidence Interval) 75% [1]	Combination Indices at % HIV Inhibition (Confidence Interval) 90% [1]	Combination Indices at % HIV Inhibition (Confidence Interval) 50% [2]	Combination Indices at % HIV Inhibition (Confidence Interval) 75% [2]	Combination Indices at % HIV Inhibition (Confidence Interval) 90% [2]	Combination Indices at % HIV Inhibition (Confidence Interval) 50% [3]	Combination Indices at % HIV Inhibition (Confidence Interval) 75% [3]	Combination Indices at % HIV Inhibition (Confidence Interval) 90% [3]	EC50 [4] [nM]	Overall Result (combined anti-HIV effect) (Compound 1 + named drug)	EC50 (LAI) [nM]	Overall Result (combined anti-HIV effect) (Compound 1 + named drug, listed as delavirdine)	Overall Result (combined anti-HIV effect) (Compound 1 + named drug, listed as nevapiradine)
c1cc(CN2CCCNCCNCCCNCC2)ccc1CN1CCCNCCNCCCNCC1 [AMD-3100]	tendency to additivity	strongly synergistic	0.44 (0.29, 0.60)	0.62 (0.31, 0.92)	0.98 (0.21, 1.76)	0.56 (0.42, 0.70)	0.54 (0.35, 0.73)	0.66 (0.29, 1.02)	0.52 (0.36, 0.68)	0.61 (0.35, 0.88)	0.77 (0.24, 1.31)	5				
enfuvirtide			0.47 (0.40, 0.54)	0.53 (0.42, 0.65)	0.60 (0.39, 0.81)	0.48 (0.37, 0.60)	0.60 (0.40, 0.80)	0.75 (0.35, 1.15)	0.35 (0.29, 0.40)	0.47 (0.37, 0.57)	0.63 (0.40, 0.86)		Synergistic	1		
O=c1[nH]cnc2c1ncn2[C@H]1CC[C@@H](CO)O1 [Didanosine, didanosine]			0.31 (0.29, 0.32)	0.16 (0.15, 0.17)	0.08 (0.08, 0.09)	0.27 (0.23, 0.31)	0.31 (0.24, 0.38)	0.35 (0.23, 0.48)	0.15 (0.11, 0.19)	0.31 (0.22, 0.40)	0.65 (0.31, 0.98)	652	Synergistic			
CC(C)Nc1cccnc1N1CCN(C(=O)c2cc3cc(NS(C)(=O)=O)ccc3[nH]2)CC1 [Delavirdine, delavirdine]			0.90 (0.75, 1.06)	0.49 (0.38, 0.61)	0.28 (0.18, 0.39)	0.57 (0.42, 0.71)	0.55 (0.36, 0.75)	0.57 (0.26, 0.89)	0.64 (0.49, 0.78)	0.46 (0.31, 0.60)	0.34 (0.17, 0.50)	25	Synergistic		synergistic	
Cc1c(O)cccc1C(=O)N[C@@H](CSc1ccccc1)[C@H](O)CN1C[C@H]2CCCC[C@H]2C[C@H]1C(=O)NC(C)(C)C [Nelfinavir, nelfinavir]			0.39 (0.34, 0.44)	0.47 (0.39, 0.56)	0.58 (0.41, 0.74)	0.41 (0.32, 0.50)	0.81 (0.57, 1.05)	1.61 (0.84, 2.37)	0.12 (0.09, 0.15)	0.32 (0.22, 0.42)	0.87 (0.38, 1.35)	3	Additive-			
Cc1ccnc2c1NC(=O)c1cccnc1N2C1CC1 [Nevirapine, nevirapine]			0.19 (0.15, 0.23)	0.22 (0.16, 6.28)	0.26 (0.15, 0.38)	0.48 (0.35, 0.62)	0.66 (0.40, 0.92)	0.92 (0.35, 1.49)	0.58 (0.48, 0.67)	0.99 (0.76, 1.22)	1.71 (1.09, 2.33)	107	Additive-			additive-synergystic
CC(C)c1nc(CN(C)C(=O)N[C@H](C(=O)N[C@@H](Cc2ccccc2)C[C@H](O)[C@H](Cc2ccccc2)NC(=O)OCc2cncs2)C(C)C)cs1 [Ritonavir, ritonavir]			0.60 (0.49, 0.72)	0.61 (0.45, 0.77)	0.70 (0.41, 0.99)	0.54 (0.45, 0.63)	0.58 (0.44, 0.71)	0.73 (0.46, 1.00)	0.23 (0.20, 0.26)	0.20 (0.17, 0.24)	0.19 (0.14, 0.24)	7	Synergistic			
CC(C)(C)NC(=O)[C@@H]1C[C@@H]2CCCC[C@@H]2CN1C[C@@H](O)[C@H](Cc1ccccc1)NC(=O)[C@H](CC(N)=O)NC(=O)c1ccc2ccccc2n1 [Saquinavir, saquinavir]			0.31 (0.28, 0.33)	0.31 (0.28, 0.35)	0.32 (0.26, 0.38)	0.60 (0.52, 0.67)	0.67 (0.56, 0.79)	0.77 (0.56, 0.97)	0.39 (0.33, 0.45)	0.59 (0.46, 0.72)	0.90 (0.58, 1.22)	5	Synergistic			
Nc1nc(NC2CC2)c2ncn([C@H]3C=C[C@@H](CO)C3)c2n1 [Abacavir, abacavir]			0.69 (0.49, 0.89)	0.77 (0.46, 1.09)	0.87 (0.30, 1.44)	0.56 (0.45, 0.67)		0.48 (0.27, 0.68)	0.10 (0.05, 0.14)	0.27 (0.16, 0.39)		326	Additive-			
